The values that follow come from patent US20230029385A1, “2-METHYL-AZA-QUINAZOLINES” (Bayer Aktiengesellschaft, priority 2019, published 2023).

The conditions of test [1]: combination of BAY-293 with ARS-853; cited from earlier work.
The target of test [2] is T1, K-Ras-wt activation by SOS (Homo sapiens, UniProt Q07889).
T1 sequence (Q07889 564-1049): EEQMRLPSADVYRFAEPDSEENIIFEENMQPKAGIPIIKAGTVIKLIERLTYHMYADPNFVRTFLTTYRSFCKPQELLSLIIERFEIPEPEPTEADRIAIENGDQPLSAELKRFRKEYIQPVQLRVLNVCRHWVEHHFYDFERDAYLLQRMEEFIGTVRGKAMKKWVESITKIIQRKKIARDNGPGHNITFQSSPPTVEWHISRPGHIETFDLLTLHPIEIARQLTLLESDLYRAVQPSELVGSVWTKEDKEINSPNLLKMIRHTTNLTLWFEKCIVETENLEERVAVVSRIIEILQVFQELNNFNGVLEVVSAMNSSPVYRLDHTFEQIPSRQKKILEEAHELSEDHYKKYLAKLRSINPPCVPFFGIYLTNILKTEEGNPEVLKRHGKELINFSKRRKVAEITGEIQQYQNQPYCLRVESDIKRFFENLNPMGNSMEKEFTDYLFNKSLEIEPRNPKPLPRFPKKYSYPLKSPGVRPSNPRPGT
The test can be described thus: K-Ras-wt activation by SOS. The test is classed as biochemical. The settings on record: mean; K-Ras wild type; read-out: K-Ras-wt activation by SOS IC50 - [mol/l] (mean).

Test [3] concerns the target T2, hK-RasG12C activation by hSOS1 at high GTP concentration (Homo sapiens, UniProt Q07889).
T2 construct: His10-hSOS1; made in house; host or cells: E. coli BL21 (DE3)
T2 sequence (Q07889 with tags, fused parts or gaps): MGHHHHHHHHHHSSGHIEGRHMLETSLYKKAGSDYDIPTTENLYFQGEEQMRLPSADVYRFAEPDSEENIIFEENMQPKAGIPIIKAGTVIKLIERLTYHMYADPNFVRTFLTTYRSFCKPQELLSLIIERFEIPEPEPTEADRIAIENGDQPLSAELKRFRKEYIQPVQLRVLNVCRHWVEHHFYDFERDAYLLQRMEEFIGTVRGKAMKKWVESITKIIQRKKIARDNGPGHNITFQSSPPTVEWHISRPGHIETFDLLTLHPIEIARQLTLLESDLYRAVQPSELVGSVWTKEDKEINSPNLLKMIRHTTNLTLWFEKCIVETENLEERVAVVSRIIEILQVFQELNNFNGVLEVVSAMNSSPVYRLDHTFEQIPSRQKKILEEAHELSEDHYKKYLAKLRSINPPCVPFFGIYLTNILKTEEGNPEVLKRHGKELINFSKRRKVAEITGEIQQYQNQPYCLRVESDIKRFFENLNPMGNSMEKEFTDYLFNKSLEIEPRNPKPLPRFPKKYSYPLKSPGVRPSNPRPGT
The test can be described thus: hK-RasG12C activation assay by hSOS1 at high GTP concentration (Biochemical Assay 2, HTRF). The settings on record: mean; assay 2, high concentration of 50 μM GTP; read-out: K-Ras activation by SOS high GTP (off-HTRF) IC50 - [mol/l] (mean). An excerpt:
Biochemical Assay 2: hK-RasG12C Activation Assay by hSOS1 at High GTP Concentration
This assay quantifies human SOS1-mediated nucleotide exchange of human K-Ras^G12C (hK-RasG12C) preloaded with a fluorescent […] and in presence of an excess of free GTP. Loaded hK-RasG12C generates a high HTRF-signal by energy transfer from antiGST-Terbium (FRET donor) bound to hK-Ras to the loaded fluorescent GDP analog (FRET-acceptor). hSOS1 activity exchanges the fluorescent GDP for non-fluorescent GTP and therefore leads to a reduction of the HTRF signal.
The fluorescent GDP-analog EDA-GDP-Dy647P1 (2′/3′-O-(2-Aminoethyl-carbamoyl)-guanosine-5′-diphosphate labelled with Dy647P1 (Dyomics GmbH, Germany)) is synthesized by Jena Biosciences GmbH (Germany) and supplied as a 1 mM aqueous solution.
The expression and purification of N-terminal GST-tagged human K-RasG12C and N-terminal His-tagged human SOS1 is described below. Concentrations of protein batches used are optimized to be within the linear range of the HTRF signal.
Preparation of GST-tagged hK-RasG12C loaded with fluorescent nucleotide is performed as follows: incubation of 11.5 μM hK-Ras^G12C with 5-fold excess GDP-Dy647 nucleotide (54 μM) in 500 μl NLS-buffer (RAS activation Kit Jena Bioscience, Kat. #PR-950) for 10 min at 37° C. Addition of 20 μl 1 M MgCl2 (Sigma) to final 40 mM and store on ice. Purification into buffer (10 mM HEPES pH 7.4 (Applichem), 150 mM NaCl (Sigma), 5 mM MgCl2 (Sigma)) by use of a PD-Minitrap desalting column (GE Healthcare). Concentration of 1 ml purified hK-Ras-GDP-Dy647 is approx. 4-5 μM.
(§1) The assay buffer containes 10 mM HEPES pH 7.4 (Applichem), 150 mM NaCl (Sigma), 5 mM MgCl2 (Sigma), 1 mM DTT (Thermofisher), 0.05% BSA Fraction V, pH 7.0, (ICN Biomedicals), 0.0025% (v/v) Igepal (Sigma).
A Ras working solution is prepared in assay buffer containing typically 80 nM loaded GST-hK-RasG12C-EDA-GDP-Dy647P1 and 2 nM antiGST-Tb (Cisbio, France). A hSOS1 working solution is prepared in assay buffer containing typically 8 nM His-hSOS1 and 100 μM GTP (Jena Bioscience, Germany). An inhibitor control solution is prepared in assay buffer containing the same concentration of hSOS1 without GTP.
Alternatively, the inhibitor control solution is prepared by supplementing the hSOS1 working solution with 20 μM of 6,7-dimethoxy-N-[(1R)-1-(1-naphthyl)ethyl]quinazolin-4-amine which is used to calibrate the assay.
(§2) Fifty nl of a 100-fold concentrated solution of the test compound in DMSO are transferred into a black microtiter test plate (384 or 1536, Greiner Bio-One, Germany). For this, either a Hummingbird liquid handler (Digilab, Mass., USA) or an Echo acoustic system (Labcyte, Calif., USA) is used.
All steps of the assay are performed at 20° C. A volume of 2.5 μl of the Ras working solution is added to all wells of the test plate using a Multidrop dispenser (Thermo Labsystems). After 2 min preincubation, 2.5 μl of the hSOS1 working solution are added to all wells except for those wells at the side of the test plate that are subsequently filled with 2.5 μl of the inhibitor control solution. After 20 min incubation the fluorescence is measured with a Pherastar (BMG, Germany) using the HTRF module (excitation 337 nm, emission 1: 620 nm, emission 2: 665 nm).
(§3) The ratiometric data (emission 2 divided by emission 1) are normalized using the controls (DMSO=0% inhibition, inhibition control wells with inhibitor control solution=100% inhibition). Compounds are tested in duplicates at up to 11 concentrations (for example 20 μM, 5.7 μM, 1.6 μM, 0.47 μM, 0.13 μM, 38 nM, 11 nM, 3.1 nM, 0.89 nM, 0.25 nM and 0.073 nM). IC50 values are calculated by 4-Parameter fitting using a commercial software package (Genedata Screener, Switzerland).
In general terms: TR-FRET usually uses a lanthanide donor and a delayed reading to cut background.

Test [4] deals with T3, hK-RasG12C activation by hSOS1 (Homo sapiens, UniProt Q07889).
T3 construct: His10-hSOS1; made in house; host or cells: E. coli BL21 (DE3)
T3 sequence (Q07889 with tags, fused parts or gaps): T2 sequence (Q07889 with tags, fused parts or gaps)
The test can be described thus: hK-RasG12C activation assay by hSOS1 (Biochemical Assay 3, HTRF). The settings on record: mean; assay 3, loading with fluorescent GTP-analog; read-out: K-RasG12C activation by SOS IC50 - [mol/l] (mean).
Description: Biochemical Assay 3: hK-RasG12C Activation Assay by hSOS1
K-Ras is a small GTPase that can bind GDP and GTP. The guanine nucleotide exchange factor SOS1 catalyzes the activation of K-Ras by promoting the exchange of GDP to GTP. SOS1 binds to K-Ras-GDP thereby opening the GDP-binding pocket to facilitate GDP release. Rebinding of excess nucleotide leads to dissociation of the K-Ras-SOS1 intermediate complex leaving K-Ras loaded with the nucleotide.
This assay quantifies human SOS1- (hSOS1-) mediated loading of human K-Ras^G12C-GDP (hK-RasG12C-GDP) with a fluorescent GTP-analog. Detection of successful loading is achieved by measuring homogenous time-resolved fluorescence resonance energy transfer (HTRF) from antiGST-Terbium (FRET donor) bound to GST-hK-RasG12C (see below) to the loaded fluorescent GTP analog (FRET-acceptor).
The fluorescent GTP-analog EDA-GTP-Dy647P1 (2′/3′-O-(2-Aminoethyl-carbamoyl)-guanosine-5′-triphosphate labelled with Dy647P1 (Dyomics GmbH, Germany)) is synthesized by Jena Biosciences GmbH (Germany) and supplied as a 1mM aqueous solution.
as §1
The expression and purification of N-terminal GST-tagged human K-RasG12C and N-terminal His-tagged hSOS1 is described below. Concentrations of protein batches used are optimized to be within the linear range of the HTRF signal. A hRas working solution is prepared in assay buffer containing typically 100 nM GST-hK-RasG12C and 2 nM antiGST-Tb (Cisbio, France). A hSOS1 working solution is prepared in assay buffer containing typically 20nM hSOS1 and 200 nM EDA-GTP-Dy647P1. An inhibitor control solution is prepared in assay buffer containing 200 nM EDA-GTP-Dy647P1 without hSOS1.
as §2
All steps of the assay are performed at 20° C. A volume of 2.5 μl of the hRas working solution is added to all wells of the test plate using a Multidrop dispenser (Thermo Labsystems). After 10 min preincubation, 2.5 μl of the hSOS1 working solution are added to all wells except for those wells at the side of the test plate that are subsequently filled with 2.5 μl of the inhibitor control solution. After 30 min incubation the fluorescence is measured with a Pherastar (BMG, Germany) using the HTRF module (excitation 337 nm, emission 1: 620 nm, emission 2: 665 nm).
as §3

The target in test [5] is T4, human SOS1 (hSOS1) with human K-RasG12C (hK-RasG12C) (Homo sapiens, UniProt Q07889).
T4 construct: His10-hSOS1; made in house; host or cells: E. coli BL21 (DE3)
T4 sequence (Q07889 with tags, fused parts or gaps): T2 sequence (Q07889 with tags, fused parts or gaps)
The test can be described thus: hK-RasG12C interaction assay with hSOS1 (Biochemical Assay 1, HTRF). In kind it is binding. The conditions noted are these: mean, read-out: K-RasG12C- SOS interaction assay IC50 - [mol/l] (mean). Here is the method: Biochemical Assay 1: hK-RasG12C Interaction Assay with hSOS1
This assay quantifies the equilibrium interaction of human SOS1 (hSOS1) with human K-Ras^G12C (hK-RasG12C). Detection of the interaction is achieved by measuring homogenous time-resolved fluorescence resonance energy transfer (HTRF) from antiGST-Europium (FRET donor) bound to GST-K-RasG12C to anti-6His-XL665 bound to His-tagged hSOS1 (FRET-acceptor).
The assay buffer containes 5 mM HEPES pH 7.4 (Applichem), 150 mM NaCl (Sigma), 10 mM EDTA (Promega), 1 mM DTT (Thermofisher), 0.05% BSA Fraction V, pH 7.0, (ICN Biomedicals), 0.0025% (v/v) Igepal (Sigma) and 100 mM KF (FLUKA).
The expression and purification of N-terminal GST-tagged hK-RasG12C and N-terminal His-tagged hSOS1 is described below. Concentrations of protein batches used are optimized to be within the linear range of the HTRF signal. A Ras working solution is prepared in assay buffer containing typically 10 nM GST-hK-RasG12C and 2 nM antiGST-Eu(K) (Cisbio, France). A SOS1 working solution is prepared in assay buffer containing typically 20 nM His-hSOS1 and 10 nM anti-6His-XL665 (Cisbio, France). An inhibitor control solution is prepared in assay buffer containing 10 nM anti-6His-XL665 without hSOS1.
as §2
All steps of the assay are performed at 20° C. A volume of 2.5 μl of the Ras working solution is added to all wells of the test plate using a Multidrop dispenser (Thermo Labsystems). After 2 min preincubation, 2.5 μl of the SOS1 working solution are added to all wells except for those wells at the side of the test plate that are subsequently filled with 2.5 μl of the inhibitor control solution. After 60 min incubation the fluorescence is measured with a Pherastar (BMG, Germany) using the HTRF module (excitation 337 nm, emission 1: 620nm, emission 2: 665 nm).
as §3

pIC50: −log10 of the molar value.

With `CNCc1ccccc1-c1csc(C(C)Nc2nc(C)nc3cc(OC)c(OC)cc23)c1` (stereo not shown) [BAY-293], the “anti-proliferative activity in vitro of the combination” value in test [1] is recorded as “Synergistic anti-proliferative activity”.
On to `CC(=O)N[C@@H]1CCN(c2cc3c(N[C@H](C)c4cccc(C(F)F)c4F)nc(C)nc3c(C)n2)C1`, for which the pIC50 is 7.08 in test [2], 6.59 in test [3], 6.68 in test [4] and 7.25 in test [5].
As to `Cc1nc(N[C@H](C)c2cccc(C(F)F)c2F)c2cc(F)nc(C)c2n1`, the pIC50 in test [2], in test [4] and in test [5] was below 4.70 each time.
For the molecule `CC(=O)N[C@@H]1CCN(c2cc3c(N[C@H](C)c4cccc(C(F)F)c4F)nc(C)nc3cn2)C1`, the pIC50 in test [2] was 7.03; in test [3] it was 6.73; in test [4], 6.96; in test [5], 7.11.
With `CCOc1cc2c(N[C@H](C)c3cccc(C(F)F)c3F)nc(C)nc2cn1`, the pIC50 in test [2] is 6.51; in test [3], 6.07; in test [4] it was 6.45; in test [5], 6.87.
In the same order, the values of `CC(=O)N[C@H]1CCN(c2cc3c(N[C@H](C)c4cccc(C(F)F)c4F)nc(C)nc3cn2)C1` are 7.00, 6.71, 6.84 and 7.10.
In the same order, the values of `Cc1nc(N[C@H](C)c2cccc(C(F)F)c2F)c2cc(F)ncc2n1` are below 4.70, below 4.70, below 4.70 and below 4.70.
In the same order, the values of `Cc1nc(N[C@H](C)c2cccc(C(F)F)c2F)c2cc(N3CCCC3)ncc2n1` are 6.76, 6.49, 6.60 and 6.73.
